Here are results for 20 compounds from patent US7629375B2, “Cytoprotective compounds, pharmaceutical and cosmetic formulations, and methods” (Johnson & Johnson Consumer Companies, Inc., priority 2001, dated 2009).

In the test the test system is neonatal cardiomyocytes. Nature of the test: Myocyte calcium-contractility assay. Format: cell-based, rat. The following applies: anaerobic chamber 16 hours in DMEM 1 mM glucose, reoxygenation two hours. Here is the method:
A. Isolation and Culture of Primary Neonate Myocytes.
The following materials are employed: • 10× Heart Dissection Solution (HDS) contains the following components (g/l) in tissue grade water: NaCl, 68; HEPES, 47.6; NaH2PO4, 2; Glucose, 10; KCl, 4; MgSO4, 1, pH adjusted to 7.4. Prior to filter sterilization of diluted (1×HDS) solution, 10 mg phenol red is added to each 500 milliliters of medium. • Transferrin and Bovine Insulin (available from Life Technologies) are resuspended at a concentration of 4 mg/ml in tissue culture grade water. • DMEM-F12—DMEM/F12, powder, 1:1 containing glutamine and pyridoxine hydrochloride (available from Life Technologies). To one liter equivalent of the powder is added 2.43 g of sodium bicarbonate and 10 ml of 100× Penicillin/Streptomycin in 950 ml of tissue culture grade water with stirring. The pH is adjusted to 7.2 with 1M HCl and volume adjusted to 1 liter. The solution is filter sterilized, followed by the addition of 2.5 ml of 4 mg/ml Transferrin, 250 μl 4 mg/ml Insulin and 30.7 mg of bromodeoxyuridine. • DMEM-F12-5% FBS is also prepared for pre-coating the tissue culture plates and initial suspension of the cardiomyocyte pellet. • Collagenase solution-57.1 mg of collagenase is resuspended in 140 ml 1×HDS.
Tissue culture ware is pre-coated with DMEM-F12-5% FBS by incubating […] per well of a 96-well plate and 0.5 ml per 24-well plate at 37° C.
Two-day old rat pups are removed from their mothers and placed in a sterile container. Pups are dipped quickly into 70% alcohol, then decapitated and the body placed in an empty sterile tissue culture dish. An incision is made starting at the neck and progressing towards the belly, cutting through the sternum. The heart is removed and placed in a tissue culture dishes containing 1×HDS. The atria are trimmed, and the remaining ventricles are placed into a separate tissue culture dish containing 1×HDS, where they are sectioned into 3-4 pieces each. Ventricles are then transferred to a sterile 250 ml glass flask and the 1×HDS is removed. Twenty milliliters of pre-warmed collagenase solution is added to the ventricles, followed by incubation at 37° C. with shaking. After 20 minutes, the collagenase solution is removed and replaced with 20 ml fresh pre-warmed collagenase. Incubation is continued for an additional 20 minutes. At the end of the incubation, any tissue chunks are allowed to settle prior to removing the collagenase (containing the isolated cardiomyocytes) from the disrupted tissue pieces. The isolated myocytes are added to a 50 ml Falcon tube containing 2 ml Fetal Bovine Serum (FBS). The remaining tissue pieces are subjected to a second digestion by adding 20 ml fresh pre-warmed collagenase and incubating as above for 20 minutes. This second digest is then centrifuged at 1000 rpm for 5 minutes (tabletop centrifuge). The resulting supernatant is discarded, and the cell pellet is suspended with 4 ml FBS. The resulting cell suspension is placed in the incubator at 37° C. This step is repeated several additional times to harvest additional material.
Percoll gradients are prepared by adding 2.5 ml of 10×HDS to 22.5 ml of Percoll (Life Technologies) with mixing (Percoll Stock). Top Gradient solution (11 ml Percoll Stock and 14 ml 1×HDS) and Bottom Gradient solution (13 ml Percoll Stock and 7 ml 1×HDS) are prepared. Four milliliters of the Top Gradient solution is transferred into 6×15 ml sterile Falcon tubes. Three milliliters of the Bottom Gradient solution is placed in each tube by inserting a serological pipette to the bottom of the tube and slowly adding the liquid.
All the digests (6) are pooled in one 50 ml Falcon tube and centrifuged on a tabletop centrifuge at 1000 rpm for 10 minutes. The supernatant is discarded, and the cell pellet is resuspended in 12 ml of 1×HDS. Two milliliters of the cell suspension is added to the top of each gradient. […]
For `COC(=O)c1ccc(C=Cc2cc(I)c(O)c(OC)c2)cc1` [4-[2-(4-hydroxy-3-iodo-5-methoxy-phenyl)-vinyl]-benzoic acid methyl ester], the “calcium transients (Fluo-4) in amounts indicative of ability guard against ischemic damage and maintain contractile function” value (“calcium transients” for short) is reported as “presence of calcium transients”.
The entry for `COc1cc(C=Cc2ccc(C#N)cc2)ccc1O` [4-[2-(4-hydroxy-3-methoxy-phenyl)-vinyl]-benzonitrile] is “presence of calcium transients”.
The entry for `COC(=O)c1ccc(C=Cc2ccc(C)s2)cc1` [4-[2-(5-methyl-thiophen-2-yl)-vinyl]-benzoic acid methyl ester] is “presence of calcium transients”; for `COCOc1cc(C=Cc2ccc(C(=O)OC)cc2)cc(CC=C(C)C)c1OCOC` [4-{2-[3,4-bis-methoxymethoxy-5-(3-methyl-but-2-enyl)-phenyl]-vinyl}-benzoic acid methyl ester] it is “presence of calcium transients”; for `COCOc1cc(C=Cc2ccc(C#N)cc2)cc(OCOC)c1CC=C(C)C` [4-{2-[3,5-bis-methoxymethoxy-4-(3-methyl-but-2-enyl)-phenyl]-vinyl}-benzonitrile] it is “presence of calcium transients”.
Regarding `COC(=O)c1ccc(C=Cc2cc(CC=C(C)CCC=C(C)C)c(O)c(OC)c2)cc1` [4-{2-[3-(3,7-dimethyl-octa-2,6-dienyl)-4-hydroxy-5-methoxy-phenyl]-vinyl}-benzoic acid methyl ester], the “calcium transients” value is reported as “presence of calcium transients”.
`COc1cc(C=Cc2ccc(C#N)cc2)cc(CC=C(C)CCC=C(C)C)c1O` [4-{2-[3-(3,7-dimethyl-octa-2,6-dienyl)-4-hydroxy-5-methoxy-phenyl]-vinyl}-benzonitrile]: the “calcium transients” value was “presence of calcium transients”.
The entry for `COCOc1c(CC=C(C)CCC=C(C)C)cc(C=Cc2ccc(C#N)cc2)cc1OC` [4-{2-[3-(3,7-dimethyl-octa-2,6-dienyl)-5-methoxy-4-methoxymethoxy-phenyl]-vinyl}-benzonitrile] is “presence of calcium transients”; for `COCOc1c(CC=C(C)C)cc(C=Cc2ccc(C(=O)OC)cc2)cc1OC` [4-{2-[3-methoxy-4-methoxymethoxy-5-(3-methyl-but-2-enyl)-phenyl]-vinyl}-benzoic acid methyl ester] it is “presence of calcium transients”; for `COCOc1cc(C=Cc2ccc(C(=O)OC)cc2)cc(OCOC)c1CC=C(C)CCC=C(C)C` [4-{2-[4-(3,7-dimethyl-octa-2,6-dienyl)-3,5-bis-methoxymethoxy-phenyl]-vinyl}-benzoic acid methyl ester] it is “presence of calcium transients”.
`COCOc1cc(C=Cc2ccc(C#N)cc2)cc(OCOC)c1CC=C(C)CCC=C(C)C` [4-{2-[4-(3,7-dimethyl-octa-2,6-dienyl)-3,5-bis-methoxymethoxy-phenyl]-vinyl}-benzonitrile]: the “calcium transients” value is given as “presence of calcium transients”.
In the case of `Oc1cc(-c2ccc(C=Cc3ccc(O)c(O)c3)cc2)n[nH]1` [4-{2-[4-(5-hydroxy-1H-pyrazol-3-yl)-phenyl]-vinyl}-benzene-1,2-diol], the “calcium transients” value is “presence of calcium transients”.
In the case of `COCOc1ccc(C=C2SC(=O)NC2=O)cc1OCOC` [5-(3,4-bis-methoxymethoxy-benzylidene)-thiazolidine-2,4-dione], the “calcium transients” value is “presence of calcium transients”.
Under `O=C1NC(=O)C(=Cc2ccc(O)c(O)c2)S1` [5-(3,4-dihydroxy-benzylidene)-thiazolidine-2,4-dione] stands “presence of calcium transients”; under `COCOc1cc(C=Cc2cc(OC)c(OCOC)c(OC)c2)cc(OCOC)c1CC=C(C)C` [5-[2-(3,5-dimethoxy-4-methoxymethoxy-phenyl)-vinyl]-2-(3-methyl-but-2-enyl)-1,3-(bis-methoxymethoxy)-benzene], “presence of calcium transients”.
On to `COCOC(=O)c1cc(C=Cc2ccc(C(=O)OC)cc2)ccc1OCOC` [5-[2-(4-methoxycarbonyl-phenyl)-vinyl]-2-methoxymethoxy-benzoic acid methoxymethyl ester], for which the “calcium transients” value is given as “presence of calcium transients”.
On to `O=[N+]([O-])c1ccc(C=Cc2cc(O)cc(O)c2)cc1` [5-[2-(4-nitro-phenyl)-vinyl]-benzene-1,3-diol], for which the “calcium transients” value was “presence of calcium transients”.
The entry for `Cc1c(C)c2c(c(COc3ccc(C=C4SC(=O)NC4=O)cc3)c1O)CCC(C)(CCCC(C)CCCC(C)CCCC(C)C)O2` (centres unmarked) [5-{4-[6-hydroxy-2,7,8-trimethyl-2-(4,8,12-trimethyl-tridecyl)-chroman-5-ylmethoxy]-benzylidene}-thiazolidine-2,4-dione] is “presence of calcium transients”.
With `COCOc1ccc(C=Cc2ccc(N(C)C)cc2)cc1OCOC` [{4-[2-(3,4-bis-methoxymethoxy-phenyl)-vinyl]-phenyl}-dimethyl-amine], the “calcium transients” value is “presence of calcium transients”.
Under `CNc1ccc(C=Cc2ccc(OCOC)c(OCOC)c2)cc1` [{4-[2-(3,4-bis-methoxymethoxy-phenyl)-vinyl]-phenyl}-methyl-amine] stands “presence of calcium transients”.
